Values quoted from earlier work in patent US20250341511A1, “MASS-TAG LABELING OF THE CELLULAR SECRETOME” (The Governing Council of the University of Toronto, priority 2022, published 2025).

Conditions: relative to required assay concentration

## C[Te]CCCOC(=O)NCCNC(=O)Cn1ccnc1[N+](=O)[O-] [Telox]
  metabolic LD50: close to the required assay concentration
